Test [1] has as its system epitope-specific CD8+ T cell response. The experiment in a line: PfRPL677-85-specific response in spleen by ELISpot after peptide immunization of HHD mice. In kind it is in vivo. To be noted: peptide with anti-CD40 mAb and poly IC, spleen day 7. The method, then:
HHD mice, which express human HLA-A*02:01 and lack expression of murine MHC class molecules, were immunized with […] anti-CD40 mAb+[…] poly IC+[…] of PfRPL677-85 peptide ([…]) (SEQ ID NO: 18), or no peptide. 7 days later, PfRPL677-85-specific responses were measured in the spleen by ELISpot, by restimulating with the same peptide. Data were analysed using two-way ANOVA; Number of experiments=2, number of mice=3-4.
Having characterized PBANKA 1351900 (60S ribosomal protein L6-2, putative) RPL6 as a promising antigen in P. berghei, we sought to identify potential human-relevant antigens in its P. falciparum ortholog (PF3D7 1338200, also known as PF13 0213). To this extent, we used the Immune Epitope Database (IEDB: https://www.iedb.org/) epitope prediction resource (Vita, R. et al. 2019) to search for peptides within P. falciparum RPL6 that were capable of binding HLA-A*02:01; a common allele.

In the next test the test system is PbT-I liver TRM cells. In words: Prime-and-trap vaccination with CpG or α-GalCer as adjuvant. In kind it is in vivo, C57BL/6 mice. The conditions noted are these: adjuvant with αClec9a-NVY plus rAAV-NVY; 50,000 PbT-I cells; liver day 35. An excerpt:
The following day all mice were infected with 2.5×10^9 copies of rAAV-NVY. Spleens (A) and livers (B) were harvested from all mice 35 days later and the number of PbT-I TRM (CD69^+CD62L^low), TEM (CD69−CD62L^low) and TCM (CD69−CD62L^high) cells were enumerated by flow cytometry.
As illustrated above, prime-and-trap vaccination using CpG as an adjuvant was very effective at inducing liver TRM cells. To test whether CpG adjuvant might be substituted by α-GalCer, we compared prime-and-trap using CpG versus α-GalCer, (FIG. 3). C57BL/6 mice were injected with 50,000 naïve PbT-I T cells to track responses and were then vaccinated with the anti-Clec9A-NVY fusion protein together with either CpG or α-GalCer as adjuvant plus rAAV-NVY (SEQ ID NO: 15).

In the next test the test system is NKT cells. In words: NKT cell expansion and activation by NVY conjugates. In kind it is in vivo, C57BL/6 mice. To be noted: 0.135 nmol, day 3. An excerpt:
Lymphocytes were stained with monoclonal antibodies for: CD49a (Ha31/8), NK1.1 (PK136) from BD (North Ryde, NSW, Australia), CD8a (53-6.7), KLRG1 (2F1), Ly5.1 (A20), Ly5.1 (104), CD8a (53-6.7), CD44 (IM7), Ly6C (HK1.4), TCRβ (H57-597), CXCR6 (SA051D1), CXCR3 (CXCR3-173), CX3CR1 (SA011F11), from Biolegend (Australian Biosearch, Karrinyup, WA. Australia), and CD62L (MEL-14), CD101 (Moushi101) and CD69 (H1.2F3), from eBioscience (Jomar Life Research, Scoresby, VIC, Australia). Dead cells were excluded by propidium iodide staining or far red live/dead fixable dye (ThermoFisher). In some experiments cells were stained with an α-GalCer (PBS-44—a gift from Prof. Paul Savage, Brigham-Young University, UT, USA)-loaded CD1d tetramer produced in-house at 4° C. for 30 min, washed, and further antibody staining was conducted for 10 min at 4° C. Antibodies used were for: CD3 (17A2), CD45R/B220 (RA3-6B2), NK1.1 (PK136), CD69 (H1.2F3), all from BioLegend (CA, USA). The viability dye used was DAPI (Invitrogen, NZ). Single-color positive control samples were used to adjust compensation and cells were analyzed by flow cytometry on a LSR Fortessa (BD Biosciences), or LSRII SORP using Flowjo software (Tree Star Inc.).

A further test relates to P. berghei sporozoites. The experiment in a line: P. berghei sporozoite challenge of vaccinated mice given PbT-I cells. The conditions noted are these: single vaccination; 200 P. berghei ANKA sporozoites at day 42.

Entries after “also recorded” stand apart in the source; their conditions may differ.

The record followed here is patent US20220233668A1, “GLYCOPEPTIDE VACCINE” (VICTORIA LINK LTD., priority 2019, published 2022).

Description for P. berghei sporozoites: The remaining mice were challenged with 200 P. berghei sporozoites at day 42 and parasitemia was measured by flow cytometry from day 6-13. […] Percentage of parasites present in red blood cells at day 7 post malaria challenge. […] Number of mice that succumbed or were protected after malaria challenge.
The remaining mice in each group were challenged with 200 P. berghei sporozoites at day 73 and parasitemia was measured at day 79, 80, 81. Mice with two consecutive days of visible parasites in the blood were culled. Mice surviving challenge with low dose sporozoites were rechallenged with 3000 sporozoites. Parasitemia was measured at days 5, 6, 7, 8 and 12 post-high-dose-challenge.
As described in Example 11, 50,000 PbT-I.GFP cells were transferred into recipient C57BL/6 mice. […] Organs were harvested from mice from each group at days 21-35 post vaccination and assessed for the generation of memory T cells by flow cytometry as outlined in FIG. 5. The remaining mice per group were challenged with 200 P. berghei sporozoites at day 42 and parasitemia was measured by flow cytometry at days 6, 7, 8 and 13. […]
As described in Example 12, 50,000 PbT-I.GFP cells were transferred into recipient C57BL/6 mice. […] Organs were harvested from mice from each group at days 21 post vaccination and assessed for the generation of memory T cells by flow cytometry as outlined in FIG. 5. […]

Regarding ILNSGLLAV, in test [1], the “epitope-specific CD8+ T cell response” value is recorded as “triggered an epitope-specific CD8^+ T cell response”.

`CCCCCCCCCCCCCCCCCCCCCCCCCC(=O)N[C@@H](CO[C@H]1O[C@H](CO)[C@H](O)[C@H](O)[C@H]1O)[C@H](O)[C@H](O)CCCCCCCCCCCCCC` [α-GalCer, N-((2S,3S,4R)-3,4-Dihydroxy-1-(((2S,3R,4S,5R,6R)-3,4,5-trihydroxy-6-(hydroxymethyl)tetrahydro-2H-pyran-2-yl)oxy)octadecan-2-yl)hexacosanamide]: in the test on PbT-I liver TRM cells, the “liver TRM cell numbers in prime-and-trap setting” value was “gave a much poorer liver TRM cell response; also recorded: does not generate large numbers of liver TRM cells; also recorded: did not produce high numbers of liver TRM cells”. Also, the “expansion of NKT cells (numbers in liver and spleen)” value in the test on NKT cells was “more efficient at expanding NKT cells than V.S.NVYLP”. Moreover, in the test on NKT cells (liver and spleen), the “activation of NKT cells (CD69, NK1.1)” value was “more potently activated NKT cells when compared to V.S.NVYLP”. In the test on P. berghei sporozoites, the “protection after malaria challenge” value is given as “no mice were protected”.
